Assay results reported in US8569344B2, “N-piperidinyl acetamide derivatives as calcium channel blockers” (Zalicus Pharmaceuticals Ltd., priority 2008, dated 2013).
Where two headings read alike, the source gives them in different places.

Columns and labels:
Assay type in all cases: cell-based
[1] = target: T1, human α1G T-type channels (Homo sapiens, UniProt O43497); assay: T-type calcium channel block, whole cell patch clamp in HEK cells (α1G); details: HEK cells, patch clamp, mainly non-inactivated protocol; values above 10 μM shown as 10 μM, below 0.30 μM shown as 0.30 μM; read-out: T-type Calcium Channel Block α1G IC50
T1 construct: expressed in transfected cells; host or cells: HEK 293

hERG K+ channel = hERG K+ channel (Homo sapiens, UniProt Q12809); assay: hERG K+ Channel Block
hERG K+ channel, sequence (Q12809 whole entry): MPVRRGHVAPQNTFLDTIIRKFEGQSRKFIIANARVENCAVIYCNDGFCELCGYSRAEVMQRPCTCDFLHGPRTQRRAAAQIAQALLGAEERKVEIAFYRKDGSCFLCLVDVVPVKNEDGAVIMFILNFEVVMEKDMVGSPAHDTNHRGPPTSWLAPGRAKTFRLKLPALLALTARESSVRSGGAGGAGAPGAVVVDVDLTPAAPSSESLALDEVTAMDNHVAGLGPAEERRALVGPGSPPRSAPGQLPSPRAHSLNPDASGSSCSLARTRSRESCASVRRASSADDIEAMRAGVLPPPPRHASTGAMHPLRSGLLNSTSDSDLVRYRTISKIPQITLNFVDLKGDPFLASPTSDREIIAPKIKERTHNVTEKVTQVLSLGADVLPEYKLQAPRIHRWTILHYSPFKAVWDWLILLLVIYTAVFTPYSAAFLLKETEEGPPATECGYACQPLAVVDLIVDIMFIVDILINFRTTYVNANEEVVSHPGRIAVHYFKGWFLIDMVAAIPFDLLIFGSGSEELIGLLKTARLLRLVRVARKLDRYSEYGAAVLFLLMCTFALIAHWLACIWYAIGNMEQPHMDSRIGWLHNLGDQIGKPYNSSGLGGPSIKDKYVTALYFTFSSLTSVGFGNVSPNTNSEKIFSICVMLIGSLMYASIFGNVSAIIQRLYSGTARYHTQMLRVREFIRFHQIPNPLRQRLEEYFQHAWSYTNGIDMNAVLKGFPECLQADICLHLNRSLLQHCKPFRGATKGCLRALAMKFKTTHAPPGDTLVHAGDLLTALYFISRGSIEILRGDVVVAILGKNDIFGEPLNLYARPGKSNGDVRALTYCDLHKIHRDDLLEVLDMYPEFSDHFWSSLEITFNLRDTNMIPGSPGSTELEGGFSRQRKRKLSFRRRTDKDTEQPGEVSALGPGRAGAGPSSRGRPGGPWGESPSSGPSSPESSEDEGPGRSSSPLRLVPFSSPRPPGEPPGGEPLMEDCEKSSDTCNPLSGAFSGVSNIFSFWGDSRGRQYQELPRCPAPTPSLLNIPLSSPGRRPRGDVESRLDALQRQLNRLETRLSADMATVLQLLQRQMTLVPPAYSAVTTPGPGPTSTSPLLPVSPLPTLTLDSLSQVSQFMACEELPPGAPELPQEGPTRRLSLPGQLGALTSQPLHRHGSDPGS

[2] = target: T2, human α1H T-type channels (Homo sapiens, UniProt O95180); assay: T-type calcium channel block, whole cell patch clamp in HEK cells (α1H); details: HEK cells, patch clamp, mainly non-inactivated protocol; values above 10 μM shown as 10 μM; read-out: T-type Calcium Channel Block α1H IC50
T2 construct: expressed in transfected cells; host or cells: HEK 293
T2 sequence (O95180 whole entry): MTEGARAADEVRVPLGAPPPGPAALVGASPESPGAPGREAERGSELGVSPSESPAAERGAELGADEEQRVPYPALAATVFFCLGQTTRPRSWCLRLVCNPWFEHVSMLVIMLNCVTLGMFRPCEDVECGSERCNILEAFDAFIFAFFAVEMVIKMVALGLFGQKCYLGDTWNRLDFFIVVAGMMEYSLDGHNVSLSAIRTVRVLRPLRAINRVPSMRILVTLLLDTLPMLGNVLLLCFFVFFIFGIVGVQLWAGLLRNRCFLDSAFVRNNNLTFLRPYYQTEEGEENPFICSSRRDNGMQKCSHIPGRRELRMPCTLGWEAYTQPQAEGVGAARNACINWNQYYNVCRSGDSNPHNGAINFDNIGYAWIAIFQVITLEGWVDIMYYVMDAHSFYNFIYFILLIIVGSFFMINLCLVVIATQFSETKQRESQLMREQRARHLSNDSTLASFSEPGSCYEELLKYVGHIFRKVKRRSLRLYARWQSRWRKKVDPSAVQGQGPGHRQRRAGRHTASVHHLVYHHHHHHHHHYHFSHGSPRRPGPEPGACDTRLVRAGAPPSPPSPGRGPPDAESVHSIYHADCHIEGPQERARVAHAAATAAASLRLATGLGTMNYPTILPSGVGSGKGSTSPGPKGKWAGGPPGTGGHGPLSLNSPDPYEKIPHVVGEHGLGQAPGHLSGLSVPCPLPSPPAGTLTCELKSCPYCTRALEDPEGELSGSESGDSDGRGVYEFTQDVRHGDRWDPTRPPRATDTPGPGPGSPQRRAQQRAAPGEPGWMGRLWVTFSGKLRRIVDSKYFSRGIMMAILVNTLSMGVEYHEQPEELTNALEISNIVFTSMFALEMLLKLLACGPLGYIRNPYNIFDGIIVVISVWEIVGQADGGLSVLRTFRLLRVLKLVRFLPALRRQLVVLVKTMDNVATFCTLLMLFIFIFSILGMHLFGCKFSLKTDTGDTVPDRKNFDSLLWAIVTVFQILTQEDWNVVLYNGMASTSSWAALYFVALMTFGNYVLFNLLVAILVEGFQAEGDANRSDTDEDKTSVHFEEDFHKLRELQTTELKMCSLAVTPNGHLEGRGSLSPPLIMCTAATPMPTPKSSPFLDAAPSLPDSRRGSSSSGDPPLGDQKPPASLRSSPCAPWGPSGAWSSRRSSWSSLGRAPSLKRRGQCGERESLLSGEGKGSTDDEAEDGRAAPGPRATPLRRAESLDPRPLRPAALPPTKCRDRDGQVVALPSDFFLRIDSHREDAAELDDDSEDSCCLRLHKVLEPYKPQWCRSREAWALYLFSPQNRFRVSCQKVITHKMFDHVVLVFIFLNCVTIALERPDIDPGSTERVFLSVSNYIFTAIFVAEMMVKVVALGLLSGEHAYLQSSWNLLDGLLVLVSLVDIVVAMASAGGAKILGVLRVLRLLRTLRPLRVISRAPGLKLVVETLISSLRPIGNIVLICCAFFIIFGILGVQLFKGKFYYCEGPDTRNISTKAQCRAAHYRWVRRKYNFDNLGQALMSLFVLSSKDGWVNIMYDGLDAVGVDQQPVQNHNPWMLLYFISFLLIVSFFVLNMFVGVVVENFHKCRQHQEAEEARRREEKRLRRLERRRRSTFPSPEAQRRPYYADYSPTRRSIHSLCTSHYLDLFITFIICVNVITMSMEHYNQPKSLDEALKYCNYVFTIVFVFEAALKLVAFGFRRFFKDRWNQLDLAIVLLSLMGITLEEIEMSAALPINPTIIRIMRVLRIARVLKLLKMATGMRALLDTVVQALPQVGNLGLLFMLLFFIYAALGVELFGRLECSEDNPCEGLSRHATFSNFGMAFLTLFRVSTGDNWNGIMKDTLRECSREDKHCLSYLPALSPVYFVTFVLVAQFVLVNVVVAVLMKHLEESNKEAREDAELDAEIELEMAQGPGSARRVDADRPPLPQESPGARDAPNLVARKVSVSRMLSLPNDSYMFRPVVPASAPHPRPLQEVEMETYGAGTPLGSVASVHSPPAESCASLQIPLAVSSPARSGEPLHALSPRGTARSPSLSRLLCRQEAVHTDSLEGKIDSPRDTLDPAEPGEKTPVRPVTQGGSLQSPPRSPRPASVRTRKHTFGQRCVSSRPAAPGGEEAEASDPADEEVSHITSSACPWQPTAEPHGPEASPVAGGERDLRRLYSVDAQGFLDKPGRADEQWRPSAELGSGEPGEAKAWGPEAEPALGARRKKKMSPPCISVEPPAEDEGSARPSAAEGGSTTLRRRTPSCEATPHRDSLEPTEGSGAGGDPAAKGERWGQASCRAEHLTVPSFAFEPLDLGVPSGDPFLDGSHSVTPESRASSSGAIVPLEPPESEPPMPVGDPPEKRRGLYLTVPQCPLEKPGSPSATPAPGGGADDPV

SMILES	IC50 [1] [nM]	IC50 [2] [nM]	IC50 (hERG K+ channel; human) [nM]	IC50 (hERG K+ channel) [nM]
COc1cc(OC)cc(C(=O)NCC2CCN(CC(=O)NC(C)(C)C(F)(F)F)CC2)c1 [Compound 457, 3,5-dimethoxy-N-((1-(2-oxo-2-(1,1,1-trifluoro-2-methylpropan-2-ylamino)ethyl)piperidin-4-yl)methyl)benzamide]	< 300	50	≥ 16600	
CC(C)(NC(=O)CN1CCC(CNC(=O)c2cccc(Cl)c2)CC1)C(F)(F)F [Compound 460, 3-chloro-N-((1-(2-oxo-2-(1,1,1-trifluoro-2-methylpropan-2-ylamino)ethyl)piperidin-4-yl)methyl)benzamide]	< 300	30		6900
CC(C)(NC(=O)CN1CCC(CNC(=O)c2cc(F)cc(Cl)c2)CC1)C(F)(F)F [Compound 461, 3-chloro-5-fluoro-N-((1-(2-oxo-2-(1,1,1-trifluoro-2-methylpropan-2-ylamino)ethyl)piperidin-4-yl)methyl)benzamide]	< 300	20		7400
CC(C)(NC(=O)CN1CCC(CNC(=O)c2cccc(OC(F)(F)F)c2)CC1)C(F)(F)F [Compound 462, N-((1-(2-oxo-2-(1,1,1-trifluoro-2-methylpropan-2-ylamino)ethyl)piperidin-4-yl)methyl)-3-(trifluoromethoxy) benzamide]	< 300	30		4100
O=C(NCC1CCN(CC(=O)N2CCC[C@H]2C(F)(F)F)CC1)c1cccc(Br)c1 [Compound 468, (S)-3-bromo-N-((1-(2-oxo-2-(2-(trifluoromethyl)pyrrolidin-1-yl)ethyl)piperidin-4-yl)methyl)benzamide]	< 300	90		4200
O=C(NCC1CCN(CC(=O)N2CCC[C@H]2C(F)(F)F)CC1)c1cccc(Cl)c1 [Compound 469, (S)-3-chloro-N-((1-(2-oxo-2-(2-(trifluoromethyl)pyrrolidin-1-yl)ethyl)piperidin-4-yl)methyl)benzamide]	< 300	120		9500
O=C(NCC1CCN(CC(=O)N2CCC[C@H]2C(F)(F)F)CC1)c1cc(F)cc(Cl)c1 [Compound 470, (S)-3-chloro-5-fluoro-N-((1-(2-oxo-2-(2-(trifluoromethyl)pyrrolidin-1-yl)ethyl)piperidin-4-yl)methyl)benzamide]	< 300	70		2600
O=C(NCC1CCN(CC(=O)N2CCC[C@H]2C(F)(F)F)CC1)c1cccc(OC(F)(F)F)c1 [Compound 471, (S)-N-((1-(2-oxo-2-(2-(trifluoromethyl)pyrrolidin-1-yl)ethyl)piperidin-4-yl)methyl)-3-(trifluoromethoxy)benzamide]	< 300	60		2300
O=C(NCC1CCN(CCNC(=O)C2(C(F)(F)F)CC2)CC1)c1cc(F)cc(Cl)c1 [Compound 472, 3-chloro-5-fluoro-N-((1-(2-(1-(trifluoromethyl)cyclopropanecarbox-amido)ethyl)piperidin-4-yl)methyl) benzamide]	< 300	40		2800
O=C(NCC1CCN(CCNC(=O)C2(C(F)(F)F)CC2)CC1)c1cccc(C(F)(F)F)c1 [Compound 473, 3-(trifluoromethyl)-N-((1-(2-(1-(trifluoromethyl)cyclopropanecarbox-amido)ethyl)piperidin-4-yl)methyl) benzamide]	680	130		2200
Cc1cc(F)cc(C(=O)NCC2CCN(CC(=O)NC3(C)CCC3)CC2)c1 [Compound 476, 3-fluoro-5-methyl-N-((1-(2-(1-mtrhylcyclobutylamino)-2-oxoethyl)piperidin-4-yl)methyl) benzamide]	< 300	140	≥ 16600	
COc1cc(F)cc(C(=O)NCC2CCN(CC(=O)NC3(C)CCC3)CC2)c1 [Compound 477, 3-fluoro-5-methoxy-N-((1-(2-(1-methylcyclobutylamino)-2-oxoethyl)piperidin-4-yl)methyl) benzamide]	< 300	60	≥ 16600	
COc1cc(OC)cc(C(=O)NCC2CCN(CC(=O)NC3(C)CCC3)CC2)c1 [Compound 478, 3,5-dimethoxy-N-((1-(2-(1-methylcyclobutylamino)-2-oxoethyl)piperidin-4-yl)methyl) benzamide]	< 300	110	≥ 16600	
CC1(NC(=O)CN2CCC(CNC(=O)c3cc(F)cc(Cl)c3)CC2)CCC1 [Compound 482, 3-chloro-5-fluoro-N-((1-(2-(1-methylcyclobutylamino)-2-oxoethyl)piperidin-4-yl)methyl) benzamide]	< 300	80		7900

The next lines start with results.

IC50 [1] [nM]	IC50 [2] [nM]	SMILES	IC50 (hERG K+ channel; human) [nM]	IC50 (hERG K+ channel) [nM]
370	120	Cc1cc(F)cc(C(=O)NCC2CCN(CCNC(=O)C(C)(C)C(F)(F)F)CC2)c1 [Compound 489, 3-fluoro-5-methyl-N-((1-(2-(3,3,3-trifluoro-2,2-dimethylpropanamido)ethyl)piperidin-4-yl)methyl)benzamide]		8800
< 300	150	COc1cc(F)cc(C(=O)NCC2CCN(CCNC(=O)C(C)(C)C(F)(F)F)CC2)c1 [Compound 490, 3-fluoro-5-methoxy-N-((1-(2-(3,3,3-trifluoro-2,2-dimethylpropanamido)ethyl)piperidin-4-yl)methyl)benzamide]		10900
< 300	90	CC(C)(C(=O)NCCN1CCC(CNC(=O)c2cccc(C(F)(F)F)c2)CC1)C(F)(F)F [Compound 492, N-((1-(2-(3,3,3-trifluoro-2,2-dimethylpropanamido)ethyl)piperidin-4-yl)methyl)-3-(trifluoromethyl)benzamide]		4700
< 300	60	CC(C)(C(=O)NCCN1CCC(CNC(=O)c2cccc(Br)c2)CC1)C(F)(F)F [Compound 493, 3-bromo-N-((1-(2-(3,3,3-trifluoro-2,2-dimethylpropanamido)ethyl)piperidin-4-yl)methyl)benzamide]		2500
< 300	90	CC(C)(C(=O)NCCN1CCC(CNC(=O)c2cc(F)cc(Cl)c2)CC1)C(F)(F)F [Compound 495, 3-chloro-5-fluoro-N-((1-(2-(3,3,3-trifluoro-2,2-dimethylpropanamido)ethyl)piperidin-4-yl)methyl)benzamide]		4100
< 300	140	COc1cc(F)cc(C(=O)NCC2CCN(CCNC(=O)C3(C(F)(F)F)CC3)CC2)c1 [Compound 499, 3-fluoro-5-methoxy-N-((1-(2-(1-(trifluoromethyl)cyclopropanecarbox-amido)ethyl)piperidin-4-yl)methyl) benzamide]		11100
< 300	180	COc1cc(OC)cc(C(=O)NCC2CCN(CCNC(=O)C3(C(F)(F)F)CC3)CC2)c1 [Compound 500, 3,5-dimethoxy-N-((1-(2-(1-(trifluoromethyl)cyclopropanecarbox-amido)ethyl)piperidin-4-yl)methyl) benzamide]		5500
< 300	120	O=C(NCC1CCN(CCNC(=O)C2(C(F)(F)F)CC2)CC1)c1cccc(Br)c1 [Compound 501, 3-bromo-N-((1-(2-(1-(trifluoromethyl)cyclopropanecarbox-amido)ethyl)piperidin-4-yl)methyl) benzamide]		5600
< 300	90	O=C(NCC1CCN(CCNC(=O)C2(C(F)(F)F)CCC2)CC1)c1cc(F)cc(Cl)c1 [Compound 511, 3-chloro-5-fluoro-N-((1-(2-(1-(trifluoromethyl)cyclobutanecarboxamido)ethyl)piperidin-4-yl)methyl)benzamide]		2900
< 300	90	COc1cc(F)cc(C(=O)NCC2CCN(CCNC(=O)C3(C(F)(F)F)CCC3)CC2)c1 [Compound 513, 3-fluoro-5-methoxy-N-((1-(2-(1-(trifluoromethyl)cyclobutanecarboxamido)ethyl)piperidin-4-yl)methyl)benzamide]	≥ 16600	
< 300	80	O=C(CN1CCC(CNC(=O)c2cc(F)cc(Cl)c2)CC1)NC1CCCC1 [Compound 531, 3-chloro-N-((1-(2-(cyclopentylamino)-2-oxoethyl)piperidin-4-yl)methyl)-5-fluorobenzamide]		2400
2470	360	CC(C)(C)[S+]([O-])NCCN1CCC(CNC(=O)c2cc(F)cc(C(F)(F)F)c2)CC1 (stereo not drawn) [Compound 537, N-((1-(2-(1,1-dimethylethylsulfinamido)ethyl)piperidin-4-yl)methyl)-3-fluoro-5-(trifluoromethyl)benzamide]	≥ 17000	
< 300	60	COCC(C)(C)NC(=O)CN1CCC(CNC(=O)c2cc(F)cc(Cl)c2)CC1 [Compound 538, 3-chloro-5-fluoro-N-((1-(2-(1-methoxy-2-methylpropan-2-ylamino)-2-oxoethyl)piperidin-4-yl)methyl)benzamide]		13000
310	410	COc1cc(F)cc(C(=O)NCC2CCN(CC(=O)N(C)C(C)(C)C)CC2)c1 [Compound 541, N-((1-(2-(tert-butyl(methyl)amino)-2-oxoethyl)piperidin-4-yl)methyl)-3-fluoro-5-methoxybenzamide]	≥ 17000	
980	450	CN(C(=O)CN1CCC(CNC(=O)c2cccc(C(F)(F)F)c2)CC1)C(C)(C)C [Compound 542, N-((1-(2-(tert-butyl(methyl)amino)-2-oxoethyl)piperidin-4-yl)methyl)-3-(trifluoromethyl)benzamide]		6400
